Laboratory results from patent publication US20180296523A1, “USE OF POLYMETHOXYLATED FLAVONES TO AMELIORATE CIRCADIAN RHYTHM DISORDERS” (THE BOARD OF REGENTS OF THE UNIVERSITY OF TEXAS SY, priority 2017, published 2018).

Experiments:
[1] = tested on: Bmal1 promoter with RORα/γ knockdown; assay: Bmal1 promoter-driven luciferase reporter in U2OS cells; assay type: cell-based
regular chow-fed mice = assay: Metabolic homeostasis in regular chow-fed mice; assay type: in vivo, mouse; settings: regular chow (RC) feeding, 9-week treatment
Experimental: Weekly body weight was monitored in different treatment mice for 10 weeks. Body mass composition was measured at the end of experiments using a minispec mqNMR spectrometer (Bruker Optics, Texas) (Garcia et al., 2013). A control group of mice were fed with regular chow diet (Purina 5001) in parallel with the two treatment groups in HFD. For db/db and db/db Clock^Δ19/Δ19 mice, male mice at 6-8 weeks of age were group-housed (2-3/cage) and maintained on regular chow diets. Mice were subjected to oral gavage with either DMSO or NOB as described above.
Glucose tolerance test (GTT) and insulin tolerance test (ITT) were performed largely as described (He et al., 2015; Jeong et al., 2015). Briefly, after overnight and 5-hr fasting, GTT and ITT were conducted at ZT2 and ZT8 respectively. Glucose levels were measured from tail blood before and 15, 30, 60, or 120 min after injection of either 1 g/kg glucose or 0.75 U/kg insulin (Sigma) at ZT2 and ZT8 respectively by using the ONETOUCH UltraMini blood glucose monitoring system (LifeScan). Serum insulin levels were measured with the Rat/Mouse Insulin Elisa kit (Millipore) according to the manufacturer's instructions. The plasma samples were collected at ZT2 as described above for lipid assays.

[2] = Pharmacokinetic study in mice (LC-MS/MS); assay type: in vivo; settings: mouse, oral gavage 200 mg/kg; for exposure in plasma/serum, brain and liver: single dose, 200 mg/kg
Experimental: For diet-induced obesity, male mice at 6 weeks of age were fed with HFD (D12492, Research Diets) until the end of the experimental protocol. The mice were treated with either vehicle (DMSO) or NOB (200 mg/kg body weight) via oral gavage every other day, in the time window of ZT8-10, throughout the experimental period. An every-other-day dosing regimen was chosen at the indicated level based on several reasons. First, previous in vivo studies have used similar overall amounts for mouse treatment (100-125 mg/kg/day) (Lee et al., 2013; Li et al., 2006). The oral gavage procedure was done in late afternoon (ZT8-10) prior to the start of their active phase, reasoning that this may coincide with the time-window adopted by previous studies. Second, daily dosing was not chosen to avoid entraining the experimental mice with the procedure per se as an artificial zeitgeber. Furthermore, pilot pharmacokinetic (PK) assays were done under a single-dose condition (Fig. S7). […] Therefore, it was reasoned that every-other day dosing helps avoid any incomplete daily clearance over the chronic experimental period (10 weeks). NOB was administered orally at ZT8 at a dose of 200 mg/kg in 0.25% sodium Carboxy Methyl Cellulose (CMC) suspension. Three mice per time point were sacrificed at 0.0, 1.0, 2.0, 4.0, 8.0 and 24.0 hr after oral gavage. NOB in plasma, brain and liver was determined by LC-MS/MS (API 4000: EQ-RS-MS-006).

[3] = tested on: Bmal1 promoter (RORE) with RORα or RORγ; assay: Bmal1 promoter-driven luciferase reporter in Hepa1-6 cells; assay type: cell-based, mouse
Description: Plasmids containing the retinoic acid-related orphan receptor response element (RORE) from mouse Bmal1 promoter, pcDNA3.1B-G4DBD-RORαLBD and pcDNA3.1BG4DBD-RORγLBD were constructed in our lab. Specifically, the 1960 bp sequences (−1830/+130) of the mouse Bmal1 promoter harboring either WT ([…] (SEQ ID NO:1) and […] (SEQ ID NO:2)) or mutant ([…] (SEQ ID NO:3)) RORE were PCR amplified from mouse genomic DNA and cloned into pGL3-promoter luciferase vector. For expression of RORα or RORγ-GAL4 protein, mouse RORα-LBD (aa 261-523) or RORγ-LBD (aa 250-516) were PCR amplified from mouse genomic DNA and cloned into a GAL4-DBD-containing vector, pcDNA3.1B.
For mammalian one-hybrid assays, HEK293T cells were cotransfected with pcDNA3.1B-G4DBD-RORα/γLBD, pGL4.31 and TK promoter Renilla luciferase construct (tK.pRL). To investigate the regulation of the Bmal1 reporter, Hepa1-6 cells were cotransfected with Bmal1-WT or mutant RORE reporter plasmids, RORα, RORγ or Rev-erbα expression construct along with tK.pRL. Mouse and human siRNA targeting RORα and RORγ were purchased from Santa Cruz. Transfection was performed by Lipfectamine 2000 reagent (Invitrogen) Twenty-four hours after transfection, the cells were treated with vehicle or NOB. Lysates were collected 24 h after treatment, and firefly and Renilla luciferase activities were measured by using a Dual-Luciferase Reporter System (Promega).

RORγt = target: T1, RORγt (Homo sapiens, UniProt P51449); settings: Huh et al., 2011; cited from earlier work
T1 sequence (P51449 1-497 isoform P51449-2): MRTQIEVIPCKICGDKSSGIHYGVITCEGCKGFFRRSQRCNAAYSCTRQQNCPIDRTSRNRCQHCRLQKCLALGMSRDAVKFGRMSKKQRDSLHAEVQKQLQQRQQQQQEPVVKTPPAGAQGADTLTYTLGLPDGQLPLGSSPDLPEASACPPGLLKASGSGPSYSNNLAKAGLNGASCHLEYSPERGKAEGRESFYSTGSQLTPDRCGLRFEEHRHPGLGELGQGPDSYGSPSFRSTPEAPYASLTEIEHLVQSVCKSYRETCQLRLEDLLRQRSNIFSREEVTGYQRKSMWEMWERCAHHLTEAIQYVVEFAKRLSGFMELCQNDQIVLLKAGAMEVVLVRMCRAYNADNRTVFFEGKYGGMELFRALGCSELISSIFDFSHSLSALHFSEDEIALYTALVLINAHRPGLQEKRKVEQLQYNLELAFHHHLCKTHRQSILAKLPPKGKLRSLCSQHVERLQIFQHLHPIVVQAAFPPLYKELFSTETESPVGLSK

Q: For `COc1ccc(-c2cc(=O)c3c(OC)c(OC)c(OC)c(OC)c3o2)cc1OC` [nobiletin], which “induction of Bmal1 reporter after knockdown of RORα/γ by siRNAs” value [1] is on record?
A: abrogated the nobiletin-mediated induction

Q: And the metabolic homeostasis (regular chow-fed mice)?
A: did not show significantly beneficial effects

Q: What about the metabolic homeostasis (regular chow-fed mice; listed as NOB) of the same compound?
A: did not effect metabolic homeostasis

Q: What about the “NOB level 8 hr after single-dose administration” value [2] of the same compound?
A: undetectable

Q: And the “exposure in plasma/serum, brain and liver” value [2]?
A: significant brain and systemic exposure

Q: And the “exposure in plasma/serum, brain and liver” value ([2]; listed as NOB)?
A: significant exposure in serum, brain and particularly liver

Q: And the “Bmal1 reporter activation with ectopic expression of REV-ERBα” value [3]?
A: abolished reporter activation

Q: And the “induction of Bmal1 reporter after knockdown of RORα/γ by siRNAs” value ([3]; Hepa1-6 cells)?
A: abrogated the nobiletin-mediated induction

Q: And the “Bmal1 promoter-driven luciferase reporter activity” value ([3]; WT RORE, in the presence of RORα or RORγ)?
A: dose-dependently increase

Q: And the “effect on RORγt in primary screen” value (RORγt)?
A: activated RORγt
